In the supplement of paper PMC10307832:

How the values were obtained:
Assay in all cases: relative viability (nuclei count vs DMSO), 5 days (fraction); higher = more cells survive
Doxorubicin + AZD7762 = compound: COc1cccc2c1C(=O)c1c(O)c3c(c(O)c1C2=O)C[C@@](O)(C(=O)CO)C[C@@H]3O[C@H]1C[C@H](N)[C@H](O)[C@H](C)O1 [Doxorubicin] + NC(=O)Nc1cc(-c2cccc(F)c2)sc1C(=O)N[C@H]1CCCNC1 [AZD7762] (partner 0.2 µM)
How it was run: (§1)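 Lung cancer cell lines were pin-tool dosed in 1536-well plates on the day after seeding, with either a lone drug or a fixed anchor-drug dose plus five library-drug doses (not always all listed) in √10 steps. Nuclei were counted on 4× images after 5 days. Relative viability is the ratio of treated-well to vehicle-well nuclei counts, with each value a median of duplicate plates.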

Doxorubicin + Phenformin = compound: COc1cccc2c1C(=O)c1c(O)c3c(c(O)c1C2=O)C[C@@](O)(C(=O)CO)C[C@@H]3O[C@H]1C[C@H](N)[C@H](O)[C@H](C)O1 [Doxorubicin] + N=C(N)NC(=N)NCCc1ccccc1 [Phenformin] (partner 250 µM)
How it was run: as §1

BAY61-3606 + Bortezomib = compound: COC1=C(C=C(C=C1)C2=CC3=NC=CN3C(=N2)NC4=C(C=CC=N4)C(=O)N)OC [BAY61-3606] + CC(C)C[C@H](NC(=O)[C@H](Cc1ccccc1)NC(=O)c1cnccn1)B(O)O [Bortezomib] (partner 0.002 µM)
How it was run: as §1

BAY61-3606 + Vorinostat = compound: COC1=C(C=C(C=C1)C2=CC3=NC=CN3C(=N2)NC4=C(C=CC=N4)C(=O)N)OC [BAY61-3606] + O=C(CCCCCCC(=O)Nc1ccccc1)NO [Vorinostat] (partner 1 µM)
How it was run: as §1

| Cell Line | relative viability (Doxorubicin + AZD7762; first compound 0.001 µM) | relative viability (Doxorubicin + AZD7762; first compound 0.003162 µM) | relative viability (Doxorubicin + AZD7762; first compound 0.01 µM) | relative viability (Doxorubicin + AZD7762; first compound 0.03162 µM) | relative viability (Doxorubicin + AZD7762; first compound 0.1 µM) | relative viability (Doxorubicin + Phenformin; first compound 0.001 µM) | relative viability (Doxorubicin + Phenformin; first compound 0.003162 µM) | relative viability (Doxorubicin + Phenformin; first compound 0.01 µM) | relative viability (Doxorubicin + Phenformin; first compound 0.03162 µM) | relative viability (Doxorubicin + Phenformin; first compound 0.1 µM) | relative viability (BAY61-3606 + Bortezomib; first compound 0.02 µM) | relative viability (BAY61-3606 + Bortezomib; first compound 0.06325 µM) | relative viability (BAY61-3606 + Bortezomib; first compound 0.2 µM) | relative viability (BAY61-3606 + Bortezomib; first compound 0.6325 µM) | relative viability (BAY61-3606 + Bortezomib; first compound 2 µM) | relative viability (BAY61-3606 + Vorinostat; first compound 0.02 µM) | relative viability (BAY61-3606 + Vorinostat; first compound 0.06325 µM) | relative viability (BAY61-3606 + Vorinostat; first compound 0.2 µM) | relative viability (BAY61-3606 + Vorinostat; first compound 0.6325 µM) | relative viability (BAY61-3606 + Vorinostat; first compound 2 µM) |
| --- | --- | --- | --- | --- | --- | --- | --- | --- | --- | --- | --- | --- | --- | --- | --- | --- | --- | --- | --- | --- |
| NCI-H322M | 0.514 | 0.546 | 0.6 | 0.502 | 0.429 | 0.815 | 0.731 | 0.755 | 0.429 | 0.385 | 1.27 | 1.27 | 1.19 | 1.1 | 1.14 | 0.985 | 0.872 | 0.974 | 0.866 | 0.74 |
| EPLC-272H | 0.337 | 0.182 | 0.164 | 0.221 | 0.241 | 0.325 | 0.32 | 0.395 | 0.256 | 0.299 | 1.01 | 0.931 | 0.915 | 0.958 | 0.951 | 0.402 | 0.401 | 0.579 | 0.339 | 0.37 |
| NCI-H1975 | 0.738 | 0.623 | 0.764 | 0.599 | 0.391 | 0.397 | 0.422 | 0.383 | 0.219 | 0.179 | 0.427 | 0.349 | 0.421 | 0.395 | 0.244 | 0.849 | 0.734 | 0.712 | 0.722 | 0.585 |
| NCI-H727 | 0.675 | 0.575 | – | 0.497 | 0.573 | 0.499 | 0.472 | 0.696 | 0.539 | 0.404 | 0.844 | 0.822 | 0.872 | 0.856 | 0.829 | 1.03 | 1.12 | 1.07 | 1.17 | 1.24 |
| NCI-H1355 | 0.838 | 0.741 | 0.741 | 0.673 | 0.72 | 0.423 | 0.488 | 0.465 | 0.449 | 0.416 | 1.19 | 1.07 | 1.17 | 1.27 | 1.21 | 0.722 | 0.617 | 0.574 | 0.645 | 0.604 |
| NCI-H2347 | 0.618 | 0.895 | 0.668 | 0.686 | 0.58 | 0.434 | 0.513 | 0.428 | 0.374 | 0.273 | 1.09 | 0.815 | 0.971 | 0.869 | 1.01 | 0.721 | 0.65 | 0.598 | 0.575 | 0.597 |
| LC-2-ad | 0.831 | 0.781 | 0.859 | 0.827 | 0.725 | 0.498 | 0.516 | 0.562 | 0.289 | 0.304 | 1.02 | 1.1 | 0.979 | 1.08 | 0.907 | 0.821 | 0.743 | 0.588 | 0.707 | 0.721 |
| NCI-H838 | 0.921 | 0.934 | 0.913 | 0.919 | 0.749 | 0.502 | 0.607 | 0.556 | 0.346 | 0.19 | 0.954 | 0.738 | 0.748 | 0.822 | 0.501 | 0.743 | 0.74 | 0.7 | 0.652 | 0.553 |
| NCI-H2087 | 1.3 | 1.32 | 1.32 | 1.34 | 1.17 | – | 0.45 | 0.405 | 0.273 | 0.247 | 0.908 | 0.862 | 0.869 | 0.759 | 0.746 | 0.673 | 1.03 | 0.727 | 0.359 | 0.647 |
| NCI-H596 | 1.13 | 1.12 | 0.987 | 0.986 | 0.959 | 0.696 | 0.882 | 0.742 | 0.558 | 0.755 | 0.99 | 1.08 | 1.17 | 1.48 | 1.1 | 0.726 | 0.568 | 0.514 | 0.771 | 0.686 |
| RERF-LC-KJ | 1.04 | 1.1 | 0.872 | 0.866 | 0.896 | 0.397 | 0.443 | 0.372 | 0.325 | 0.271 | 1.2 | 1.13 | 1.06 | 1.17 | 0.85 | 0.701 | 0.684 | 0.704 | 0.881 | 0.614 |
| NCI-H647 | 0.352 | 0.417 | 0.466 | 0.19 | 0.0766 | 0.539 | 0.494 | 0.432 | 0.231 | 0.103 | 1.16 | 1.06 | 1.19 | 1.07 | 0.696 | 0.598 | 0.566 | 0.441 | 0.529 | 0.287 |
| LU99A | 0.353 | 0.394 | 0.429 | 0.317 | 0.324 | 0.698 | 1.06 | 0.767 | 0.721 | 0.669 | 1.14 | 1.21 | 1.18 | 1.12 | 0.709 | 0.548 | 0.399 | 0.48 | 0.434 | 0.401 |
| NCI-H460 | 0.659 | 0.635 | 0.561 | 0.177 | 0.0853 | 0.435 | 0.449 | 0.179 | 0.0505 | 0.0155 | 1.12 | 1.12 | 1.05 | 0.92 | 0.548 | 0.786 | 0.862 | 0.709 | 0.65 | 0.447 |
| NCI-H650 | 0.949 | 0.921 | 0.948 | 0.89 | 0.718 | 0.543 | 0.419 | 0.509 | 0.424 | 0.373 | 0.917 | 0.766 | 0.618 | 0.681 | 0.72 | 0.466 | 0.414 | 0.428 | 0.355 | 0.35 |
| PC-14 | 0.387 | 0.366 | 0.519 | 0.259 | 0.15 | 0.421 | 0.629 | 0.709 | 0.284 | 0.213 | 0.829 | 0.883 | 0.801 | 0.949 | 0.728 | 0.808 | 0.799 | 0.845 | 0.87 | 0.667 |
| PC-3 [JPC-3] | 0.901 | 0.927 | 0.96 | 0.762 | 0.585 | 0.448 | 0.478 | 0.515 | 0.468 | 0.471 | 0.833 | 0.841 | 0.826 | 0.834 | 0.793 | 0.849 | 0.668 | 1.04 | 0.834 | 0.789 |
| NCI-H1755 | 0.523 | 0.489 | 0.393 | 0.485 | 0.491 | 0.612 | 0.642 | 0.618 | 0.675 | 0.626 | 0.953 | 0.961 | 0.957 | 1.07 | 0.923 | 0.871 | 0.676 | 0.764 | 0.803 | 0.733 |
| H3255 | 0.859 | 0.818 | 0.821 | 0.964 | 0.764 | 0.371 | 0.363 | 0.333 | 0.374 | 0.311 | 0.932 | 0.611 | 0.724 | 0.822 | 0.725 | 0.817 | 0.8 | 0.749 | 0.75 | 0.86 |
| 201T | 0.626 | 0.756 | 0.642 | 0.556 | 0.577 | 0.442 | 0.476 | 0.468 | 0.416 | 0.432 | 1.03 | 1.1 | 1.09 | 1.13 | 1.09 | 1.02 | 0.962 | 1.05 | 1.09 | 1.06 |
| CAL-12T | 0.727 | 0.673 | 0.529 | 0.668 | 0.438 | 0.514 | 0.538 | 0.412 | 0.221 | 0.129 | 1.2 | 0.939 | 0.862 | 0.78 | 0.799 | 0.827 | 0.859 | 0.725 | 0.81 | 0.576 |
| NCI-H2085 | 0.972 | 0.974 | 0.856 | 1.1 | 0.896 | 0.733 | 0.709 | 0.653 | 0.545 | 0.478 | 1.11 | 1.07 | 1.06 | 1.13 | 0.953 | 0.885 | 0.766 | 0.796 | 0.839 | 0.811 |
